Source: US9943498B2, “Fe(III) complex compounds for the treatment and prophylaxis of iron deficiency symptoms and iron deficiency anemias” (Vifor (International) AG, priority 2010, dated 2018)

Test system: Male NMRI (SPF) mice fed a low-iron diet
Test: Fe utilization in iron-deficient mouse model
Type: in vivo
Procedure: The excellent Fe utilizations that can be accomplished through the Fe complexes according to the invention were measured by means of the following mouse model.
Male NMRI (SPF) mice (approximately 3 weeks old) were fed a low-iron diet (approx. 5 ppm iron) for approximately 3 weeks. The iron complexes were then administered to them by means of a stomach tube (2 mg iron/kg body weight/day) for 2 times 5 days, with an interruption of 2 days (days 1-5 and 8-12). Utilization on day 15 was calculated from the hemoglobin increase and the body weight increase in accordance with the formula
[formula] • 0.07=Factor for 70 ml blood per kg body weight (BW) • 0.0034=Factor for 0.0034 g Fe/g Hb • Hb1=Hemoglobin level (g/I) on day 1 • Hb2(3)=Hemoglobin level (g/I) on day 8 (or 15) • BW4=body weight (g) on day 1 • BW9(14)=body weight (g) on day 8 (or 15) • Hb1 Control=average hemoglobin level (g/I) on day 1 in the control group, • Hb2(3) Control=average hemoglobin level (g/I) on day 8 (or 15) in the control group, • BW4 Control=average body weight (g) on day 1 in the control group, • BW9(14) Control=average body weight (g) on day 8 (or 15) in the control group, • Fe Dos.=entire administered iron (mg Fe) over 5 or 10 days, • Fe ut.=(Hb2(3)*BW9(14)-Hb1*BW4)*0.07*0.0034 (mg Fe) Δ Utilization=Fe tot. utilized (examined group)—Fe ut. Control group, utilized from food, (mg Fe)

[1] = male NMRI mice on low-iron diet (approx. 5 ppm iron), 2 mg iron/kg body weight/day by stomach tube, days 1-5 and 8-12, utilization on day 15 calculated from hemoglobin and body weight increase versus control group

| Substance | Utilization n 15 d (abs. %) [1] [abs. %] | Utilization n 15 d (abs. %) (mouse, in vivo) |
| --- | --- | --- |
| Tris(3-oxo-2-(piperidin-1-ylcarbonyl)butanenitrile)-iron(III) Complex [Example 5] | 61 | – |
| Tris(3-oxoheptaneamide)-iron(III) Complex [Example 10] | 45 | – |
| Tris(3-oxopentaneamide)-iron(III) Complex [Example 18] | 81 | – |
| Tris(N,N-dibutyl-3-oxobutaneamide)-iron(III) Complex [Example 8] | 69 | – |
| Tris(N,N-dimethyl-3-oxoheptaneamide)-iron(III) Complex [Example 17] | 48 | – |
| Tris(N,N-dimethyl-3-oxopentaneamide)-iron(III) Complex [Example 19] | 73 | – |
| Tris(N-butyl-3-oxobutaneamide)-iron(III) Complex [Example 7] | 41 | – |
| Tris(N-methyl-3-oxoheptaneamide)-iron(III) Complex [Example 11] | 75 | – |
| Tris-(1-(2,6-dimethylmorpholin-4-yl]butane-1,3-dione)-iron(III)-complex [Example 59] | 80 | – |
| Tris-(1-(3-hydroxypiperidin-1-yl)butane-1,3-dione)-iron(III)-complex [Example 47] | 61 | – |
| Tris-(1-(4-Hydroxypiperidin-1-yl)-4-methylpentane-1,3-dione)-iron(III)-complex [Example 64] | 79 | – |
| Tris-(1-(4-hydroxypiperidin-1-yl)-butane-1,3-dione)-iron(II) complex [Example 14] | 68 | – |
| Tris-(1-(4-hydroxypiperidin-1-yl)pentane-1,3-dione)-iron(III)-complex [Example 61] | 73 | – |
| Tris-(1-(morpholin-4-yl)butane-1,3-dione)-iron(III)-complex [Example 33] | 69 | – |
| Tris-(1-(morpholin-4-yl)pentane-1,3-dione)-iron(III)-complex [Example 62] | 68 | – |
| Tris-(1-(piperidin-1-yl)-butane-1,3-dione)-iron(III) Complex [Example 9] | 54 | – |
| Tris-(1-[4-(2-hydroxyethyl)piperazin-1-yl]butane-1,3-dione)-iron(III)-complex [Example 52] | 84 | – |
| Tris-(1-[4-(hydroxymethyl)piperidin-1-yl]butane-1,3-dione)-iron(III)-complex [Example 48] | 53 | – |
| Tris-(1-[(3S)-3-hydroxypyrrolidin-1-yl]butane-1,3-dione)-iron(III)-complex [Example 51] | 78 | – |

| Substance | Utilization n 15 d (abs. %) [1] [abs. %] | Utilization n 15 d (abs. %) (mouse, in vivo) |
| --- | --- | --- |
| Tris-(2-Fluoro-3-oxo-N-propylbutanamide)-iron(III)-complex [Example 23] | 88 | – |
| Tris-(2-Fluoro-N,N-dimethyl-3-oxobutanamide)-iron(II)-complex [Example 22] | 78 | – |
| Tris-(2-chloro-N-methyl-3-oxobutaneamide)-iron(III) Complex [Example 6] | – | 57 |
| Tris-(3-acetyl-1-methylpiperidin-2-one)-iron(III)-complex [Example 31] | 71 | – |
| Tris-(3-acetyl-1-methylpyrrolidin-2-one)-iron(III)-complex [Example 28] | 73 | – |
| Tris-(3-oxo-N,N-dipropylbutaneamide)-iron(III) Complex [Example 15] | 68 | – |
| Tris-(3-oxo-N-(propan-2-yl)butanamide)-iron(III)-complex [Example 36] | 79 | – |
| Tris-(3-oxobutaneamide)-iron(III) Complex [Example 1] | 61 | – |
| Tris-(4-Methoxy-1-(morpholin-4-yl)butane-1,3-dione)-iron(III)-complex [Example 27] | 88 | – |
| Tris-(4-Methoxy-N,N-dimethyl-3-oxobutanamide)-iron(III)-complex [Example 24] | 70 | – |
| Tris-(4-Methyl-1-(morpholin-4-yl)-pentane-1,3-dione)-iron(III)-complex [Example 26] | 64 | – |
| Tris-(Ethyl (1-methyl-2-oxopyrrolidin-3-yl)(oxo)acetate)-iron(III)-complex [Example 29] | 79 | – |
| Tris-(N,N,4-Trimethyl-3-oxopentanamide)-iron(III)-complex [Example 25] | 60 | – |
| Tris-(N,N-bis-(2-hydroxyethyl)-3-oxobutaneamide)-iron(III) Complex [Example 12] | 35 | – |
| Tris-(N,N-diethyl-3-oxobutaneamide)-iron(III) Complex [Example 2] | 41 | – |
| Tris-(N,N-dimethyl-3-oxobutaneamide)-iron(III) Complex [Example 3] | 95 | – |
| Tris-(N-(1-hydroxy-2-methylpropan-2-yl)-3-oxobutanamide)-iron(III)-complex [Example 41] | 68 | – |
| Tris-(N-(1-hydroxypropan-2-yl)-3-oxobutanamide)-iron(III)-complex [Example 44] | – | 73 |
| Tris-(N-(2,3-dihydroxypropyl)-3-oxobutanamide)-iron(III)-complex [Example 46] | 78 | – |

| Substance | Utilization n 15 d (abs. %) [1] [abs. %] | Utilization n 15 d (abs. %) (mouse, in vivo) |
| --- | --- | --- |
| Tris-(N-(2-Hydroxyethyl)-N,4-dimethyl-3-oxopentanamide)-iron(11)-complex [Example 65] | 73 | – |
| Tris-(N-(2-hydroxyethyl)-3-oxobutanamide)-iron(III)-complex [Example 37] | – | 34 |
| Tris-(N-(2-hydroxyethyl)-N-methyl-3-oxobutanamide)-iron(III)-complex [Example 42] | 30 | – |
| Tris-(N-(2-hydroxypropyl)-3-oxobutanamide)-iron(III)-complex [Example 43] | 75 | – |
| Tris-(N-(2-methoxyethyl)-3-oxobutanamide)-iron(III)-complex [Example 34] | 32 | – |
| Tris-(N-(3-hydroxypropyl)-3-oxobutanamide)-iron(III)-complex [Example 38] | 77 | – |
| Tris-(N-(3-hydroxypropyl)-N-methyl-3-oxobutanamide)-iron(III)-complex [Example 54] | 76 | – |
| Tris-(N-(4-hydroxybutyl)-3-oxobutanamide)-iron(III)-complex [Example 39] | 66 | – |
| Tris-(N-(5-hydroxypentyl)-3-oxobutanamide)-iron(III)-complex [Example 40] | – | 87 |
| Tris-(N-(morpholin-4-yl)-3-oxobutanamide)-iron(III)-complex [Example 60] | 80 | – |
| Tris-(N-(trans-4-hydroxycyclohexyl)-3-oxobutanamide)-iron(III)-complex [Example 55] | 84 | – |
| Tris-(N-Butyl-3-oxoheptanamide)-iron(III)-complex [Example 63] | 71 | – |
| Tris-(N-Cyclopropyl-3-oxobutanamide)-iron(III)-complex [Example 35] | 44 | – |
| Tris-(N-butyl-N-methyl-3-oxobutaneamide)-iron(ill) Complex [Example 13] | 71 | – |
| Tris-(N-hexyl-3-oxobutaneamide)-iron(III) Complex [Example 16] | 60 | – |
| Tris-(N-methyl-3-oxobutaneamide)-iron(III) Complex [Example 4] | 90 | – |
| Tris-(ethyl 4-(dimethylamino)-2,4-dioxobutanoate)-iron(III)-complex [Example 32] | 81 | – |
| Tris-(ethyl N-(3-oxobutanoyl)glycinate)-iron(l) complex (Tris((3-Oxo-butyrylamino)ethyl acetate)iron) [Example 20] | 77 | – |
